Four molecules from publication PMC7096432, “Transport and kinase activities of CbrA of Pseudomonas putida KT2440” (Scientific Reports, 2020) can be followed below.

For one series, the target named is T1, CbrA (Pseudomonas putida, UniProt Q88DX3).
T1 construct: gene PP_4695; full length, 109 kDa predicted
T1 sequence (Q88DX3 1-991): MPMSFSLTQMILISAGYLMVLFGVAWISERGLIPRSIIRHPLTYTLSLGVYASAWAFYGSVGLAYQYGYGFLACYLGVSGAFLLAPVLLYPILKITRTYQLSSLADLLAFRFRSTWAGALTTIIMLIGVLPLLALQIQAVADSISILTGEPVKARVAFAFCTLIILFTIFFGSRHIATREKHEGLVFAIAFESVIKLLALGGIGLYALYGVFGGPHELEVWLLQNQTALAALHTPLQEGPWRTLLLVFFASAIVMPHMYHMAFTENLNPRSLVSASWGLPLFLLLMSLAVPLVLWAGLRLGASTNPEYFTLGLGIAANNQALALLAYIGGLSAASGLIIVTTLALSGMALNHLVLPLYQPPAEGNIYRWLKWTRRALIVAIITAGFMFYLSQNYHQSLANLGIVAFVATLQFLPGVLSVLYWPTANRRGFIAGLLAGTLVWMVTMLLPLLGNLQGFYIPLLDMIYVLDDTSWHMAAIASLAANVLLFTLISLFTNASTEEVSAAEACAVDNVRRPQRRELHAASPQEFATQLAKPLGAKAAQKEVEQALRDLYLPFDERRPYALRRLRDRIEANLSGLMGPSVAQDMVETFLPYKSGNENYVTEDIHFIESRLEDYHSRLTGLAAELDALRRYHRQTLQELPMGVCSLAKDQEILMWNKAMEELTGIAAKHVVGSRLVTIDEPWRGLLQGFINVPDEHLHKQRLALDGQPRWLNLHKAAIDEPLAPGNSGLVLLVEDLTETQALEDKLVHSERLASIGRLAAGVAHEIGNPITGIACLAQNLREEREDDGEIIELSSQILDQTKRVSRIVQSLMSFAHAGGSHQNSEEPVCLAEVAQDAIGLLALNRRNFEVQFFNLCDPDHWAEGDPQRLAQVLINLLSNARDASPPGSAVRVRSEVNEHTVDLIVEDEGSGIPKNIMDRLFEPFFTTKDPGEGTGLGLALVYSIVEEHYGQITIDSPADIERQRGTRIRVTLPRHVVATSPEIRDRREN
Put plainly: DRaCALA, E. coli C43 membrane vesicles. Type of series: binding. The following applies: 1.35 µM ligand, 100 mM KPi pH 7.5, 25 °C; labelled compound.

For series [1], the target named is T2, PAS domain of CbrA (Pseudomonas putida, UniProt Q88DX3).
T2 construct: gene PP_4695; PAS domain, residues 614-745, C-terminal 12His tag, E. coli BL21 / C43, Ni-NTA purified
T2 sequence (Q88DX3 614-745): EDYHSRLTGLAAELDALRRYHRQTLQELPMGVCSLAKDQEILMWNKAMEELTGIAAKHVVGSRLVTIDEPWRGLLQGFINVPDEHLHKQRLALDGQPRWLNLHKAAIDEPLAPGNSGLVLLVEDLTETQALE
The series is described as follows: thermal shift titration, nanoDSF. The class given is binding.

For series [2], the target named is T2, PAS domain of CbrA. The series is described as follows: thermal shift, nanoDSF. The following applies: read-out: dTm at 1 mM. The class given is binding. (DSF heats the sample and reads unfolding from a dye or from intrinsic fluorescence.)
The target of a further series is T3, SLC5 domain of CbrA (Pseudomonas putida, UniProt Q88DX3).
T3 construct: gene PP_4695; SLC5 transporter domain, residues 3-544
T3 sequence (Q88DX3 3-544): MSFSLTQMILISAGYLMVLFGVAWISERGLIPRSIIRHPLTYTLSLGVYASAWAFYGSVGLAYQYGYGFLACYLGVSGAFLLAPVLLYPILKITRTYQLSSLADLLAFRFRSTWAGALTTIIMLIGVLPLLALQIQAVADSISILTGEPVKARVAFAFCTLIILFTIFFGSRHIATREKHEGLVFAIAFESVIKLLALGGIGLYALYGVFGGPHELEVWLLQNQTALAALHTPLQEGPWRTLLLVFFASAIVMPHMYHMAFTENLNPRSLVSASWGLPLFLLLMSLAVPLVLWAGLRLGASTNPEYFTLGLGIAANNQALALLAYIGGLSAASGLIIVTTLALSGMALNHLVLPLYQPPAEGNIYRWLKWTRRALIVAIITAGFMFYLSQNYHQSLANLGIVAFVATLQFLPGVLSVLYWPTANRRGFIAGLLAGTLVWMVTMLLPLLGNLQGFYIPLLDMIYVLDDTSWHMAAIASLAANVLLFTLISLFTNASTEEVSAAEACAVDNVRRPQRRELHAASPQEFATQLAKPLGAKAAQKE
Put plainly: DRaCALA, E. coli C43 membrane vesicles. The class given is binding. The following applies: 1.35 µM ligand, 100 mM KPi pH 7.5, 25 °C; labelled compound.

For a further series, the target named is T4, CbrAΔSLC5 (Pseudomonas putida, UniProt Q88DX3).
T4 construct: gene PP_4695; cytoplasmic domains, residues 614-992, C-terminal 12His tag, 44 kDa predicted, E. coli C41, Ni-NTA purified
T4 sequence (Q88DX3 614-991): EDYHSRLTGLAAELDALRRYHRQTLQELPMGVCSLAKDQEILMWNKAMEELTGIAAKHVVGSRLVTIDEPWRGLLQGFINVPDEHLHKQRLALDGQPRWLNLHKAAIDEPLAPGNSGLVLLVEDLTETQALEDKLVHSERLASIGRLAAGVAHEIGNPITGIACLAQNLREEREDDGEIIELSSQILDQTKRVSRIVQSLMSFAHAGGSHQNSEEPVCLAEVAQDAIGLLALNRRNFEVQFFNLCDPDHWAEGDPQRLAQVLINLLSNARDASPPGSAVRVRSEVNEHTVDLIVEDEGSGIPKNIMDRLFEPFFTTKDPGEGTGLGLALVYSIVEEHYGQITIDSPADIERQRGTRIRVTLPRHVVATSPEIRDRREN
The series is described as follows: autophosphorylation, SDS-PAGE. The class given is biochemical. The following applies: 50 mM Tris-HCl pH 7.5, 10 mM MgCl2, 360 mM KCl, 30 °C; labelled compound.

Substrate in series [3]: N[C@@H](Cc1c[nH]cn1)C(=O)O
The series is described as follows: 3H-L-histidine uptake into P. putida LW1 cells. Type of series: cell-based, Pseudomonas putida. The following applies: transport, 100 mM Tris/MES pH 6.0, 25 °C, energized with 10 mM D-lactate, background subtracted, labelled compound.

On to `N[C@@H](Cc1cnc[nH]1)C(=O)O` [L-histidine], for which the bound fraction entry is “evidence for binding of ^3H-L-histidine to CbrA and the SLC5 domain” at CbrA; “evidence for binding of ^3H-L-histidine to CbrA and the SLC5 domain” at SLC5 domain of CbrA. Besides, at PAS domain of CbrA [1], the Kd worked out at 43 ± 13 µM. The ΔTm at 1000 µM on PAS domain of CbrA [2] came to 0.73 ± 0.13 °C. Turning to `Nc1ncnc2c1ncn2[C@@H]1O[C@H](COP(=O)(O)OP(=O)(O)OP(=O)(O)O)[C@@H](O)[C@H]1O` [γ-32P-ATP], on CbrAΔSLC5, the “autophosphorylation, 32P SDS-PAGE” value is “catalyzed both autophosphorylation and transfer of the phosphoryl group to CbrB”.

B1: SLC5 domain of CbrA (Pseudomonas putida KT2440) (protein)
chain: MSFSLTQMILISAGYLMVLFGVAWISERGLIPRSIIRHPLTYTLSLGVYASAWAFYGSVGLAYQYGYGFLACYLGVSGAFLLAPVLLYPILKITRTYQLSSLADLLAFRFRSTWAGALTTIIMLIGVLPLLALQIQAVADSISILTGEPVKARVAFAFCTLIILFTIFFGSRHIATREKHEGLVFAIAFESVIKLLALGGIGLYALYGVFGGPHELEVWLLQNQTALAALHTPLQEGPWRTLLLVFFASAIVMPHMYHMAFTENLNPRSLVSASWGLPLFLLLMSLAVPLVLWAGLRLGASTNPEYFTLGLGIAANNQALALLAYIGGLSAASGLIIVTTLALSGMALNHLVLPLYQPPAEGNIYRWLKWTRRALIVAIITAGFMFYLSQNYHQSLANLGIVAFVATLQFLPGVLSVLYWPTANRRGFIAGLLAGTLVWMVTMLLPLLGNLQGFYIPLLDMIYVLDDTSWHMAAIASLAANVLLFTLISLFTNASTEEVSAAEACAVDNVRRPQRRELHAASPQEFATQLAKPLGAKAAQKE
notes: SLC5 transporter domain, residues 3-544
On to B1, for which the Michaelis constant (Km) in series [3] is 0.58 ± 0.18 µM.

B2: CbrA (Pseudomonas putida KT2440) (protein)
chain: MPMSFSLTQMILISAGYLMVLFGVAWISERGLIPRSIIRHPLTYTLSLGVYASAWAFYGSVGLAYQYGYGFLACYLGVSGAFLLAPVLLYPILKITRTYQLSSLADLLAFRFRSTWAGALTTIIMLIGVLPLLALQIQAVADSISILTGEPVKARVAFAFCTLIILFTIFFGSRHIATREKHEGLVFAIAFESVIKLLALGGIGLYALYGVFGGPHELEVWLLQNQTALAALHTPLQEGPWRTLLLVFFASAIVMPHMYHMAFTENLNPRSLVSASWGLPLFLLLMSLAVPLVLWAGLRLGASTNPEYFTLGLGIAANNQALALLAYIGGLSAASGLIIVTTLALSGMALNHLVLPLYQPPAEGNIYRWLKWTRRALIVAIITAGFMFYLSQNYHQSLANLGIVAFVATLQFLPGVLSVLYWPTANRRGFIAGLLAGTLVWMVTMLLPLLGNLQGFYIPLLDMIYVLDDTSWHMAAIASLAANVLLFTLISLFTNASTEEVSAAEACAVDNVRRPQRRELHAASPQEFATQLAKPLGAKAAQKEVEQALRDLYLPFDERRPYALRRLRDRIEANLSGLMGPSVAQDMVETFLPYKSGNENYVTEDIHFIESRLEDYHSRLTGLAAELDALRRYHRQTLQELPMGVCSLAKDQEILMWNKAMEELTGIAAKHVVGSRLVTIDEPWRGLLQGFINVPDEHLHKQRLALDGQPRWLNLHKAAIDEPLAPGNSGLVLLVEDLTETQALEDKLVHSERLASIGRLAAGVAHEIGNPITGIACLAQNLREEREDDGEIIELSSQILDQTKRVSRIVQSLMSFAHAGGSHQNSEEPVCLAEVAQDAIGLLALNRRNFEVQFFNLCDPDHWAEGDPQRLAQVLINLLSNARDASPPGSAVRVRSEVNEHTVDLIVEDEGSGIPKNIMDRLFEPFFTTKDPGEGTGLGLALVYSIVEEHYGQITIDSPADIERQRGTRIRVTLPRHVVATSPEIRDRREN
notes: full length, 109 kDa predicted
As for B2, the Km in series [3] was determined as 0.7 ± 0.2 µM.

As usually defined, the Kd is a measure of binding affinity in units of concentration. The Km is the concentration of substrate that gives half-maximal velocity.
